Data set [1] concerns HCT 116 human colon carcinoma. The data set can be described thus: In vitro cytotoxicity, cell colony formation assay, HCT116. Format: cell-based. As for the experimental part: (§1) The cells were incubated in a CO2 incubator at 37° C. for 5 h for attachment to the bottom of Petri dishes. The compound of the present invention was made up fresh in medium at ten times the final concentration, and then 0.3 mL of this stock solution was added to the 2.7 mL of medium in the dish. The cells were then incubated with drugs for 72 h at 37° C. At the end of incubation the drug-containing media were decanted, the dishes were rinsed with 4 mL of Hank's Balance Salt Solution (HBSS), 5 mL of fresh medium was added, and the dishes were returned to the incubator for colony formation. The cell colonies were counted using a colony counter after incubation for 7 days. Cell survival was calculated and the values of IC50 (the drug concentration producing 50% inhibition of colony formation) were determined for each tested compound.

For data set [2], the system named is VM46 (resistant variant of human colon carcinoma HCT 116). The data set can be described thus: In vitro cytotoxicity, cell colony formation assay, VM46. Type of data set: cell-based. As for the experimental part:
as §1
Identical assessments were carried out using VM46 (resistant variant of human colon carcinoma HCT 116 obtained from Dr. Li-Xi, M.D, Ph.D., California Pacific Medical Center, CA).

In data set [3] the test system is Sprague-Dawley rats. The data set can be described thus: In vivo toxicity assessment in rats, intravenous. The note with it: IV; for Rat tox score IV: summary score. As for the experimental part: (§2) Toxicity was assessed in 250-300g Sprague-Dawley rats and three rats were used per dose group. Three dose groups of the test compound, (i.e., 3 mg/kg, 9 mg/kg and 12 mg/kg for intravenous administration; 15 mg/kg, 30 mg/kg and 40 mg/kg) and 1 control group constituted a study. Animals were observed and clinical chemistry data collected at days 4 and 10. Rats were euthanized on day 11 and the nerves were excised and fixed upon euthanization for further examination.
(§3) Each rat is scored as described below and a final toxicity score that incorporates all parameters is assigned. A dead rat is assigned a score of zero. Most of the parameters contribute a positive value towards a total possible score of 130. For body weight, white blood cell, and platelet decreases, recovery is considered. […] The total score is divided by 13 to put it on a scale from 0 to 10.

In data set [4] the test system is Sprague-Dawley rats. The experiment in a line: In vivo toxicity assessment in rats, oral. Further details: species or system rat. The conditions noted are these: for Rat tox score PO: summary score. The procedure:
as §2, §3

Data set [5] concerns human pancreatic tumor xenograft Panc-1. The conditions noted are these: Panc-1, best score 10.
Experimental: The tumor used for this study was maintained in athymic nude mice. A tumor fragment (1 mm^3) was implanted s.c. into the right flank of each test mouse. Tumors were monitored twice weekly and then daily as their volume approached 200-400 mm^3 with a mean of 250-300 mm^3. On Day 1 of the study, the animals were sorted into treatment groups with tumor sizes of 171.5-320.0 mm^3 and group mean tumor sizes of 212.6-216.0 mm^3. Tumor size, in mm^3, was calculated from the following formula:
[formula] where w=width and l=length in mm of the tumor. Tumor weight was estimated with the assumption that 1 mg is equivalent to 1 mm^3 of tumor volume. […] All treatments were administered orally, once on Day 1 (qd×1). […] In all groups, the dosing volume of 0.6 mL/20 g mouse was scaled to the body weight of each animal. Each animal was euthanized when its neoplasm reached the predetermined endpoint size (1200 mm^3). The time to endpoint (TTE) for each mouse was calculated by the following equation:
(§4) [formula] where TTE is expressed in days, endpoint volume is in mm^3, b is the intercept, and m is the slope of the line obtained by linear regression of a log-transformed tumor growth data set. The data set is comprised of the first observation that exceeded the study endpoint volume and the three consecutive observations that immediately preceded the attainment of the endpoint volume. […] Animals classified as TR (treatment-related) deaths or NTRM (non-treatment-related metastasis) deaths are assigned a TTE value equal to the day of death. Animals classified as NTR (non-treatment-related) deaths are excluded from TTE calculations. Treatment efficacy was determined from tumor growth delay (TGD), which is defined as the increase in the median TTE for a treatment group compared to the control group: TGD=T−C, expressed in days, or as a percentage of the median TTE of the control group:
[formula] where: • T=median TTE for a treatment group and • C=median TTE for control Group 1.
(§5) Treatment may cause partial regression (PR) or complete regression (CR) of the tumor in an animal. In a PR response, the tumor volume is 50% or less of its Day 1 volume for three consecutive measurements during the course of the study, and equal to or greater than 13.5 mm^3 for one or more of these three measurements. In a CR response, the tumor volume is less than 13.5 mm^3 for three consecutive measurements during the course of the study. An animal with a CR response at the termination of a study is additionally classified as a long-term tumor-free survivor (LTTFS).
With respect to toxicity, the animals were weighed daily on Days 1-5, then twice weekly until the completion of the study. The mice were examined frequently for overt signs of any adverse, drug-related side effects. Acceptable toxicity for the maximum tolerated dose (MTD) of a cancer drug in mice is defined by the NCl as a group mean body-weight (BW) loss of less than 20% during the test, and not more than one toxic death among ten treated animals. The log rank test was employed to analyze the significance of the difference between the TTE values of a drug-treated group and the vehicle-treated control group. The log rank test analyzes the data for all animals except the NTR deaths. The two-tailed statistical analyses were conducted at P=0.05. The group median tumor growth curves show the median tumor volume (MTV) as a function of time. When an animal exited the study due to tumor size or TR death, the final tumor volume recorded for the animal was included with the data used to calculate the median volume at subsequent time points.
Data set [6] deals with HT29 (human colon carcinoma) xenograft. The conditions noted are these: HT29, best score 10.
Text: Score=10*(TWd1−TWdn)/TWd1, where
TWd1=tumor weight on day 1
(§6) TWDn=lowest tumor weight on day 10 or later
(§7) Thus the best score for complete regression would be 10.
Data set [7] has as its system human pancreatic tumor xenograft Panc-1. The note with it: single dose IV.
Text: as §4, §5
With respect to toxicity, the animals were weighed daily on Days 1-5, then twice weekly until the completion of the study. The mice were examined frequently for overt signs of any adverse, drug-related side effects. […] The log rank test was employed to analyze the significance of the difference between the TTE values of a drug-treated group and the vehicle-treated control group. The log rank test analyzes the data for all animals except the NTR deaths. The two-tailed statistical analyses were conducted at P=0.05. The group median tumor growth curves show the median tumor volume (MTV) as a function of time. When an animal exited the study due to tumor size or TR death, the final tumor volume recorded for the animal was included with the data used to calculate the median volume at subsequent time points. If more than one death occurred in a treatment group, the tumor growth curve for that group was truncated at the time of the second death.
Human Panc-1 pancreatic carcinomas were maintained in athymic nude mice. A tumor fragment (1 mm^3) was implanted s.c. into the right flank of each test mouse. Tumors were monitored twice weekly and then daily as their size approached 200-400 mm^3 with a mean of 250-300 mm^3. On Day 1 of the study, the animals were sorted into groups of six mice, with tumor sizes of 171.5-486.0 mm^3 and group mean tumor sizes of 269.7-275.0 mm^3. Mice were sorted into groups containing six mice each, and treated according to the protocol in Tables 2A and 2B. All treatments were administered intravenously. Control Group 1 mice received the ethanol 5% and Liposyn II 95% vehicle, once on Day 1 (qd×1). […] Dosing volumes were 0.5 ml/20 g body weight for qd×1 dosing regimens and 0.3 mL/20 g body weight for the qod×5 or q4d×4 dosing schedules. Dosing volumes were scaled to the body weight of each animal. The vehicle was given to Group 1 mice in a single dose on Day 1 (qd×1).
In data set [8] the test system is HT29 (human colon carcinoma) xenograft. The note with it: single dose IV.
Text: Score=10*(TWd1−TWdn)/TWd1, where
TWd1=tumor weight on day 1
as §6, §7
For data set [9], the system named is DLD-1 (resistant human colon carcinoma). The data set can be described thus: In vitro cytotoxicity, MTT assay, DLD-1. Type of data set: cell-based.
Where [10] appears, read: Homo sapiens, HCT-116, 72 h drug incubation.

Like-named read-outs stand apart in the source and are kept apart here.

As for `CC(=O)OC12COC1CC(O)C1(C)C(=O)C(OC(=O)C3CC3)C3=C(C)C(OC(=O)C(O)C(NC(=O)OC(C)(C)C)c4ccco4)CC(O)(C(OC(=O)c4ccccc4)C21)C3(C)C` (stereo not drawn) [Compound 0843, reference compound], the 50% inhibitory concentration (IC50) is 0.24 nM in data set [1] (72 h drug incubation) and 0.86 nM in data set [2] (72 h drug incubation). Further, the “Rat tox score IV” value in the data set with Sprague-Dawley rats [3] (scale 0 to 10) was 0. For the same compound, the “Rat tox score PO” value in the data set with Sprague-Dawley rats [4] (scale 0 to 10) is on record as 0.

For `CC(=O)OC12COC1CC(O)C1(C)C(=O)C(OC(=O)C3CC3)C3=C(C)C(OC(=O)C(O)C(NC(=O)OC(C)(C)C)c4cccs4)CC(O)(C(OC(=O)c4ccccc4)C21)C3(C)C` (stereo not drawn) [Compound 0854, reference compound], the 50% inhibitory concentration (IC50) in data set [1] (72 h drug incubation) came to 0.05 nM; in data set [2] (72 h drug incubation), 0.09 nM. The “Rat tox score IV” value with Sprague-Dawley rats [3] (scale 0 to 10) is recorded as 1. In the data set with Sprague-Dawley rats [4] (scale 0 to 10), the “Rat tox score PO” value is recorded as 0.

Turning to `CC(=O)OC12COC1CC(O)C1(C)C(=O)C(OC(=O)C3CC3)C3=C(C)C(OC(=O)C(O)C(NC(=O)OC(C)(C)C)c4ccoc4)CC(O)(C(OC(=O)c4ccccc4)C21)C3(C)C` (stereo not drawn) [Compound 2781, reference compound], the results for the concentration for half-maximal inhibition (IC50) in [1] (72 h drug incubation) and in data set [2] (72 h drug incubation) were 0.18 nM and 1.91 nM, respectively. The “Rat tox score IV” value in the data set on Sprague-Dawley rats [3] (scale 0 to 10) came out at 1. For the same compound, the “Rat tox score PO” value in the data set on Sprague-Dawley rats [4] (scale 0 to 10) is 0.

On to `CC(=O)OC12COC1CC(O)C1(C)C(=O)C(OC(=O)C3CC3)C3=C(C)C(OC(=O)C(O)C(NC(=O)OC(C)(C)C)c4ccsc4)CC(O)(C(OC(=O)c4ccccc4)C21)C3(C)C` (stereo not drawn) [Compound 2794], for which the IC50 is 0.28 nM in [1] (72 h drug incubation) and 2.03 nM in [2] (72 h drug incubation).

Turning to `CC(=O)OC12COC1CC(O)C1(C)C(=O)C(OC(=O)C3CC3)C3=C(C)C(OC(=O)C(O)C(NC(=O)OC(C)(C)C)c4ccccn4)CC(O)(C(OC(=O)c4ccccc4)C21)C3(C)C` (stereo not drawn) [Compound 2802], the results for the IC50 in [1] (72 h drug incubation) and in data set [2] (72 h drug incubation) were 0.3 nM and 3.32 nM, respectively.

As for `CC(=O)OC12COC1CC(O)C1(C)C(=O)C(OC(=O)C3CC3)C3=C(C)C(OC(=O)C(O)C(NC(=O)OC(C)(C)C)c4ccncc4)CC(O)(C(OC(=O)c4ccccc4)C21)C3(C)C` (stereo not drawn) [Compound 2813], the concentration for half-maximal inhibition (IC50) is 0.05 nM in data set [1] (72 h drug incubation) and 8.22 nM in data set [2] (72 h drug incubation).

On to `CC(=O)OC12COC1CC(O)C1(C)C(=O)C(OC(=O)C3CC3)C3=C(C)C(OC(=O)C(O)C(NC(=O)OC(C)C)c4cccs4)CC(O)(C(OC(=O)c4ccccc4)C21)C3(C)C` (stereo not drawn) [Compound 3071, reference compound], for which the 50% inhibitory concentration (IC50) in [1] (72 h drug incubation) was 0.17 nM; in data set [2] (72 h drug incubation), 1.51 nM. Also, the “Tox Score, Dose 3 mg” value in the data set with Sprague-Dawley rats [3] (dose 3 mg, scale 0 to 10) amounted to 7.7. Further, the “Tox Score, Dose 9 mg” value with Sprague-Dawley rats [3] (dose 9 mg, scale 0 to 10) worked out at 6. Moreover, the “Tox Score, Dose 12 mg” value in the data set on Sprague-Dawley rats [3] (dose 12 mg, scale 0 to 10) is reported as 3.2. For the same compound, the “Tox Score, Weighted Avg” value in the data set on Sprague-Dawley rats [3] (Wt Avg = (Σ(dose × grp score))/24) is reported as 4.8; with Sprague-Dawley rats [4] (Oral, weighted by dose), 3.6. Besides, the “Tox Score, Average” value in the data set on Sprague-Dawley rats [3] (average of 3 dose groups) worked out at 5.6; in the data set on Sprague-Dawley rats [4] (Oral, average of 3 dose groups), 4.3. Also, in the data set on Sprague-Dawley rats [3] (scale 0 to 10), the “Rat tox score IV” value was 5. Also, in the data set with Sprague-Dawley rats [4] (Oral, dose 15 mg, scale 0 to 10), the “Tox Score, Dose 15 mg” value worked out at 6.2. In addition, the “Tox Score, Dose 30 mg” value in the data set with Sprague-Dawley rats [4] (Oral, dose 30 mg, scale 0 to 10) was 5.1. In addition, the “Tox Score, Dose 40 mg” value in the data set on Sprague-Dawley rats [4] (Oral, dose 40 mg, scale 0 to 10) stood at 1.5. The “Rat tox score PO” value with Sprague-Dawley rats [4] (scale 0 to 10) was found to be 4. The “Efficacy Score = 10*(TWd1−TWdn)/TWd1” value in data set [5] (single dose oral 60 mg/kg) amounted to 5.8; in data set [5] (single dose oral 120 mg/kg) it was 7.3; in [6] (single dose oral 60 mg/kg), 6.3; in data set [6] (single dose oral 120 mg/kg), 7.5.

For `CC(=O)OC12COC1CC(O)C1(C)C(=O)C(OC(=O)C3CC3)C3=C(C)C(OC(=O)C(O)C(NC(=O)OCC(C)C)c4ccco4)CC(O)(C(OC(=O)c4ccccc4)C21)C3(C)C` (stereo not drawn) [Compound 3102, reference compound], the IC50 stood at 0.33 nM in data set [1] (72 h drug incubation) and 1.49 nM in [2] (72 h drug incubation). Moreover, the “Rat tox score IV” value in the data set with Sprague-Dawley rats [3] (scale 0 to 10) amounted to 6. The “Rat tox score PO” value with Sprague-Dawley rats [4] (scale 0 to 10) is listed as 6. Besides, the “Efficacy Score = 10*(TWd1−TWdn)/TWd1” value in data set [7] (Dose 60, best score 10) came out at 2.6; in data set [7] (Dose 120, best score 10), 5.3; in data set [8] (Dose 60, best score 10) it was 1.3; in data set [8] (Dose 120, best score 10), 5.3.

On to `CC(=O)OC12COC1CC(O)C1(C)C(=O)C(OC(=O)C3CC3)C3=C(C)C(OC(=O)C(O)C(NC(=O)OCC(C)C)c4cccs4)CC(O)(C(OC(=O)c4ccccc4)C21)C3(C)C` (stereo not drawn) [Compound 3129], for which the IC50 in data set [1] (72 h drug incubation) stood at 1.53 nM; in data set [2] (72 h drug incubation) it was 2.88 nM.

For `CCCC(=O)NC(c1cccs1)C(O)C(=O)OC1CC2(O)C(OC(=O)c3ccccc3)C3C4(OC(C)=O)COC4CC(O)C3(C)C(=O)C(OC(=O)C3CC3)C(=C1C)C2(C)C` (stereo not drawn) [Compound 3132], the values for the 50% inhibitory concentration (IC50) in [1] (72 h drug incubation) and in data set [2] (72 h drug incubation) were 0.37 nM and 5.33 nM, respectively.

`CCOC(=O)NC(c1ccco1)C(O)C(=O)OC1CC2(O)C(OC(=O)c3ccccc3)C3C4(OC(C)=O)COC4CC(O)C3(C)C(=O)C(OC(=O)C3CC3)C(=C1C)C2(C)C` (stereo not drawn) [Compound 3677]: the IC50 worked out at 0.3 nM in data set [1] (72 h drug incubation) and 18.6 nM in data set [2] (72 h drug incubation).

For `CC(=O)OC12COC1CC(O)C1(C)C(=O)C(OC(=O)C3CC3)C3=C(C)C(OC(=O)C(O)C(NC(=O)OC(C)C)c4ccco4)CC(O)(C(OC(=O)c4ccccc4)C21)C3(C)C` (stereo not drawn) [Compound 3853, reference compound], the values for the IC50 in data set [1] (72 h drug incubation) and in [2] (72 h drug incubation) were 0.08 nM and 0.99 nM, respectively. Also, the “Rat tox score IV” value in the data set with Sprague-Dawley rats [3] (scale 0 to 10) turned out to be 1. Besides, the “Rat tox score PO” value in the data set on Sprague-Dawley rats [4] (scale 0 to 10) stood at 1.

In the case of `CCOC(=O)NC(c1cccs1)C(O)C(=O)OC1CC2(O)C(OC(=O)c3ccccc3)C3C4(OC(C)=O)COC4CC(O)C3(C)C(=O)C(OC(=O)C3CC3)C(=C1C)C2(C)C` (stereo not drawn) [Compound 4051], the concentration for half-maximal inhibition (IC50) in data set [1] (72 h drug incubation) amounted to 0.3 nM; in [2] (72 h drug incubation), 1.62 nM. Further, the “Rat tox score PO” value in the data set with Sprague-Dawley rats [4] (scale 0 to 10) was 5.

As for `CCCC(=O)NC(c1ccco1)C(O)C(=O)OC1CC2(O)C(OC(=O)c3ccccc3)C3C4(OC(C)=O)COC4CC(O)C3(C)C(=O)C(OC(=O)C3CC3)C(=C1C)C2(C)C` (stereo not drawn) [Compound 4062], the IC50 in data set [1] (72 h drug incubation) was 0.59 nM; in data set [2] (72 h drug incubation), 7.64 nM.

For the compound `CC(=O)OC12COC1CC(O)C1(C)C(=O)C(OC(=O)C3CC3)C3=C(C)C(OC(=O)C(O)C(NC(=O)OCC(C)C)c4ccoc4)CC(O)(C(OC(=O)c4ccccc4)C21)C3(C)C` (stereo not drawn) [Compound 4665], the 50% inhibitory concentration (IC50) in data set [1] (72 h drug incubation) was 2.13 nM; in [2] (72 h drug incubation), 28.4 nM.

In the case of `CC(=O)OC12COC1CC(O)C1(C)C(=O)C(OC(=O)C3CC3)C3=C(C)C(OC(=O)C(O)C(NC(=O)OCC(C)C)c4ccsc4)CC(O)(C(OC(=O)c4ccccc4)C21)C3(C)C` (stereo not drawn) [Compound 5011], the IC50 in data set [1] (72 h drug incubation) came to 2.99 nM; in [2] (72 h drug incubation), 8.47 nM.

In the case of `CC(=O)O[C@@]12CO[C@@H]1C[C@H](O)[C@@]1(C)C(=O)[C@H](O)C3=C(C)[C@@H](OC(=O)[C@H](O)[C@@H](NC(=O)OC(C)(C)C)c4ccccc4)C[C@@](O)([C@@H](OC(=O)c4ccccc4)[C@H]21)C3(C)C` [docetaxel], the IC50 in [1] (72 h drug incubation) came to 0.6 nM; in [2] (72 h drug incubation) it was 6.7 nM; in data set [9] it was 9.1 nM.

In the case of `CC(=O)O[C@H]1C(=O)[C@@]2(C)[C@H]([C@H](OC(=O)c3ccccc3)[C@]3(O)C[C@H](OC(=O)[C@H](O)[C@@H](NC(=O)c4ccccc4)c4ccccc4)C(C)=C1C3(C)C)[C@]1(OC(C)=O)CO[C@@H]1C[C@@H]2O` [paclitaxel], the half-maximal inhibitory concentration (IC50) was 2.1 nM in data set [1] (setting [10]); 20 nM in [2] (setting [10]); 10.1 nM in [9] (Homo sapiens, DLD-1).
